Data published in ChEMBL document CHEMBL3885861, “Open TG-GATES”.

Species on record: Rattus norvegicus
Assay: Open TG-GATES - Regimen: Daily Repeat
Type: toxicity, organism-based, Sprague-Dawley
Design: regimen Daily Repeat, gender Male, age 6 weeks
Conditions: in vivo, po, route gavage; for IP / K / LDH / Na / PL / RALB / TBIL / TC / TG / TP / gamma-GTP / A/G / ALP / ALT / AST / BUN / CRE / Ca / Cl / DBIL / GLC: tissue Plasma; for APTT / Bas / Eos / Fbg / Hb / Ht / Lym / MCH / MCHC / MCV / Mono / Neu / PT / Plat / RBC / Ret / WBC: tissue Blood; for KIDNEY_L / KIDNEY_R / KIDNEY_TOTAL: tissue Kidney; for LIVER: tissue Liver
[1] = 0 mg/kg, […], dose level Control, time 28 day
[2] = 3 mg/kg, 72 h, dose level Low, time 3 day
[3] = 3 mg/kg, […], dose level Low, time 7 day
[4] = 3 mg/kg, […], dose level Low, time 14 day
[5] = 3 mg/kg, […], dose level Low, time 28 day

With CCN(CC)N=O [N-NITROSODIETHYLAMINE] the IP [1] was 6.9 mg/dL, the K [1] was 3.7 meq/L and the LDH [1] was 203 IU/L. The Na [1] was 141 meq/L, the PL [1] was 135.2 mg/dL and the RALB [1] was 3.5 g/dL. It also gave a TBIL [1] of 0.2 mg/dL, a TC [1] of 72.4 mg/dL and a TG [1] of 104 mg/dL. It also gave a TP [1] of 6.1 g/dL, a gamma-GTP [1] of 1.2 IU/L and a TERMINAL_BW [2] of 235.3 g. For the same compound, the APTT [2] was 18.7 s, the Bas [2] was 0.2% and the Eos [2] was 1%. The Fbg [2] was 224.6 mg/dL, the Hb [2] was 13.3 g/dL and the Ht [2] was 38.4%. The Lym [2] was 82%, the MCH [2] was 21.3 pg and the MCHC [2] was 34.7%. The MCV [2] was 61.5 fL, the Mono [2] was 2% and the Neu [2] was 14.2%. It also gave a PT [2] of 11.7 s, a Plat [2] of 134.1 x10_4/uL and an RBC [2] of 624.4 x10_4/ul. For the same compound, the Ret [2] was 5.5%, the WBC [2] was 68.1 x10_2/uL and the KIDNEY_L [2] was 1.1 g. The KIDNEY_R [2] was 1.1 g, the KIDNEY_TOTAL [2] was 2.1 g and the LIVER [2] was 10.5 g. The A/G [2] was 1.5, the ALP [2] was 1018.6 IU/L and the ALT [2] was 33 IU/L. It also gave an AST [2] of 65.8 IU/L, a BUN [2] of 14.2 mg/dL and a CRE [2] of 0.4 mg/dL. For the same compound, the Ca [2] was 10.8 mg/dL, the Cl [2] was 102.6 meq/L and the DBIL [2] was 0.094 mg/dL. The GLC [2] was 204.6 mg/dL, the IP [2] was 8.5 mg/dL and the K [2] was 4.3 meq/L. It also gave an LDH [2] of 217.4 IU/L, a Na [2] of 140.6 meq/L and a PL [2] of 142.4 mg/dL. It also gave an RALB [2] of 3.3 g/dL, a TBIL [2] of 0.1 mg/dL and a TC [2] of 72.4 mg/dL. The TG [2] was 114.4 mg/dL, the TP [2] was 5.5 g/dL and the gamma-GTP [2] was 1.4 IU/L. For the same compound, the TERMINAL_BW [3] was 272 g, the TERMINAL_BW [4] was 323.6 g and the TERMINAL_BW [5] was 391.5 g. The APTT [3] was 20.6 s, the Bas [3] was 0% and the Eos [3] was 1%. It also gave a Fbg [3] of 219.2 mg/dL, a Hb [3] of 14 g/dL and a Ht [3] of 40%. It also gave a Lym [3] of 78.2%, an MCH [3] of 21.1 pg and an MCHC [3] of 34.8%. It also gave an MCV [3] of 60.7 fL, a Mono [3] of 3% and a Neu [3] of 17.2%. It also gave a PT [3] of 11.9 s, a Plat [3] of 142 x10_4/uL and an RBC [3] of 659.8 x10_4/ul. For the same compound, the Ret [3] was 4.8%, the WBC [3] was 96.9 x10_2/uL and the APTT [4] was 19.8 s. It also gave a Bas [4] of 0.8%, an Eos [4] of 1% and a Fbg [4] of 213.2 mg/dL. The Hb [4] was 14.4 g/dL, the Ht [4] was 41.3% and the Lym [4] was 78.4%. It also gave an MCH [4] of 20.8 pg, an MCHC [4] of 34.9% and an MCV [4] of 59.5 fL. For the same compound, the Mono [4] was 2%, the Neu [4] was 17.4% and the PT [4] was 12 s. For the same compound, the Plat [4] was 139.4 x10_4/uL, the RBC [4] was 695.4 x10_4/ul and the Ret [4] was 4.1%. For the same compound, the WBC [4] was 103.2 x10_2/uL, the APTT [5] was 19.1 s and the Bas [5] was 0.6%. The Eos [5] was 1.2%, the Fbg [5] was 215.6 mg/dL and the Hb [5] was 15.4 g/dL. For the same compound, the Ht [5] was 42.5%, the Lym [5] was 80.4% and the MCH [5] was 20.3 pg. For the same compound, the MCHC [5] was 36.3%, the MCV [5] was 55.9 fL and the Mono [5] was 2.4%. The Neu [5] was 15%, the PT [5] was 11.7 s and the Plat [5] was 124.2 x10_4/uL. It also gave an RBC [5] of 759.6 x10_4/ul, a Ret [5] of 2.9% and a WBC [5] of 104.7 x10_2/uL. For the same compound, the KIDNEY_L [3] was 1.2 g, the KIDNEY_R [3] was 1.2 g and the KIDNEY_TOTAL [3] was 2.3 g. For the same compound, the KIDNEY_L [4] was 1.3 g, the KIDNEY_R [4] was 1.2 g and the KIDNEY_TOTAL [4] was 2.5 g. It also gave a KIDNEY_L [5] of 1.3 g, a KIDNEY_R [5] of 1.3 g and a KIDNEY_TOTAL [5] of 2.7 g. For the same compound, the LIVER [3] was 12 g, the LIVER [4] was 13 g and the LIVER [5] was 14 g. The A/G [3] was 1.6, the ALP [3] was 847.6 IU/L and the ALT [3] was 31.2 IU/L. For the same compound, the AST [3] was 67.2 IU/L, the BUN [3] was 15.4 mg/dL and the CRE [3] was 0.4 mg/dL. For the same compound, the Ca [3] was 10.6 mg/dL, the Cl [3] was 103.4 meq/L and the DBIL [3] was 0.1 mg/dL. It also gave a GLC [3] of 191.6 mg/dL, an IP [3] of 8.2 mg/dL and a K [3] of 4.4 meq/L. It also gave an LDH [3] of 214.2 IU/L, a Na [3] of 140.4 meq/L and a PL [3] of 131.6 mg/dL. The RALB [3] was 3.4 g/dL, the TBIL [3] was 0.2 mg/dL and the TC [3] was 66.8 mg/dL. The TG [3] was 122.2 mg/dL, the TP [3] was 5.5 g/dL and the gamma-GTP [3] was 1 IU/L. It also gave an A/G [4] of 1.4, an ALP [4] of 752 IU/L and an ALT [4] of 36 IU/L. It also gave an AST [4] of 68.6 IU/L, a BUN [4] of 15.2 mg/dL and a CRE [4] of 0.4 mg/dL. For the same compound, the Ca [4] was 10.6 mg/dL, the Cl [4] was 102 meq/L and the DBIL [4] was 0.096 mg/dL. For the same compound, the GLC [4] was 192.2 mg/dL, the IP [4] was 7.7 mg/dL and the K [4] was 3.9 meq/L. For the same compound, the LDH [4] was 190.2 IU/L, the Na [4] was 141.2 meq/L and the PL [4] was 129.4 mg/dL. For the same compound, the RALB [4] was 3.4 g/dL, the TBIL [4] was 0.2 mg/dL and the TC [4] was 68.8 mg/dL. The TG [4] was 79.4 mg/dL and the TP [4] was 5.8 g/dL.
